In the supplement of paper PMC4862054:

Columns and labels:
MDA-MB-436 = conditions: 72 h
Method in brief: (§1)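 Each 384-well plate was pre-loaded with compound dissolved in 5 µl medium, received breast cancer cells in 20 µl suspension, and was incubated 72 h. A 2.5 µl addition of CellTiter-Blue for 2 h at 37 °C was followed by a fluorescence read at 560/590 nm. Data were normalised per plate to vehicle and a positive kill control and checked by Z'-factor. EC50 was fitted from the percent-inhibition dose-response curve, censored at the highest concentration, excluding rows with a drug sensitivity score of zero.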

HCC1143 = conditions: 72 h
Method in brief: as §1

HCC1599 = conditions: 72 h
Method in brief: as §1

Hs578T = conditions: 72 h
Method in brief: as §1

BT-549 = conditions: 72 h
Method in brief: as §1

SK-BR-3 [1] = assay: normalised viability (% of control), CellTiter-Blue; higher = more viable cells (about 100 = DMSO control); conditions: incubation time: 72 h
Method in brief: (§2)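 Compound dissolved in 5 µl medium was pre-loaded into 384-well plates, and breast cancer cell lines in 20 µl suspension were seeded on top and incubated 72 h. After adding 2.5 µl CellTiter-Blue reagent for 2 h at 37 °C, fluorescence was read at 560/590 nm. Plates were normalised to vehicle (100) and a positive kill control (0), with Z'-factor quality control. Each value is normalised viability at a single listed concentration from the series.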

HDQ-P1 = assay: as above; conditions: incubation time: 72 h
Method in brief: as §2

SK-BR-3 [2] = conditions: 72 h
Method in brief: as §1

MDA-MB-231 = conditions: 72 h
Method in brief: as §1

HCC1937 = conditions: 72 h
Method in brief: as §1

MDA-MB-468 = conditions: 72 h
Method in brief: as §1

CAL-120 = conditions: 72 h
Method in brief: as §1

MFM-223 = conditions: 72 h
Method in brief: as §1

CAL-148 = conditions: 72 h
Method in brief: as §1

CAL-51 = conditions: 72 h
Method in brief: as §1

CAL-85-1 = conditions: 72 h
Method in brief: as §1

DU-4475 = conditions: 72 h
Method in brief: as §1

MDA-MB-453 = conditions: 72 h
Method in brief: as §1

Row | SMILES | EC50, CellTiter-Blue viability (MDA-MB-436) [nM] | EC50, CellTiter-Blue viability (HCC1143) [nM] | EC50, CellTiter-Blue viability (HCC1599) [nM] | EC50, CellTiter-Blue viability (Hs578T) [µM] | EC50, CellTiter-Blue viability (BT-549) [nM] | normalised viability (SK-BR-3 [1]; 100 nM) [%] | normalised viability (HDQ-P1; 10 nM) [%] | EC50, CellTiter-Blue viability (SK-BR-3 [2]) [nM] | EC50, CellTiter-Blue viability (MDA-MB-231) [nM] | EC50, CellTiter-Blue viability (HCC1937) [nM] | EC50, CellTiter-Blue viability (MDA-MB-468) [nM] | EC50, CellTiter-Blue viability (CAL-120) [nM] | EC50, CellTiter-Blue viability (MFM-223) [nM] | normalised viability (SK-BR-3 [1]; 10 nM) [%] | normalised viability (HDQ-P1; 1 nM) [%] | EC50, CellTiter-Blue viability (CAL-148) [nM] | EC50, CellTiter-Blue viability (CAL-51) [nM] | EC50, CellTiter-Blue viability (CAL-85-1) [nM] | EC50, CellTiter-Blue viability (DU-4475) [nM] | EC50, CellTiter-Blue viability (MDA-MB-453) [nM] | normalised viability (SK-BR-3 [1]; 55 nM) [%] | normalised viability (HDQ-P1; 5.5 nM) [%] | normalised viability (SK-BR-3 [1]; 9.9 nM) [%] | normalised viability (HDQ-P1; 0.99 nM) [%]
1 | CC[C@H](CO)Nc1nc(NCc2ccccc2)c2ncn(C(C)C)c2n1 [Roscovitine] | 2500 | > 10000 | 2290 | 7.66 | 684 | 73.1 | 120 |  |  |  |  |  |  |  |  |  |  |  |  |  |  |  |  | 
2 | C/C(=C\c1csc(C)n1)[C@@H]1C[C@@H]2O[C@]2(C)CCC[C@H](C)[C@H](O)[C@@H](C)C(=O)C(C)(C)[C@@H](O)CC(=O)N1 [Ixabepilone] | 173 | 371 |  | 0.625 | 510 |  |  | 274 | 84.3 | 371 | 834 | 333 | 322 | 80.7 | 82.7 | 601 | > 1000 | 947 | 642 | 515 |  |  |  | 
3 | CCNC(=O)CCC/C=C\C[C@@H]1[C@@H](/C=C/[C@@H](O)CCc2ccccc2)[C@H](O)C[C@@H]1O [Bimatoprost] |  |  |  |  |  |  |  |  |  |  |  |  |  |  |  |  |  |  |  |  | 82.1 | 99.7 |  | 
4 | COc1cc(Nc2c(C#N)cnc3cc(OCCCN4CCN(C)CC4)c(OC)cc23)c(Cl)cc1Cl [Bosutinib] | 3110 | 1440 | 2100 | 4.52 | 3360 | 74.8 | 128 | 2130 | 2410 | 2670 | 3180 | 1960 | 5250 |  |  | 1860 | 5020 | 3180 | 5670 | 2670 |  |  |  | 
5 | COc1c2occc2cc2ccc(=O)oc12 [Methoxsalen] |  |  |  |  |  | 98.6 | 99.3 |  |  |  |  |  |  |  |  | 6360 |  | 9050 | 6860 | 7900 |  |  |  | 
6 | Cc1cc(Nc2nc(N[C@@H](C)c3ncc(F)cn3)ncc2Cl)[nH]n1 [AZD1480] |  |  | 213 |  |  |  |  |  |  |  |  |  | 64.8 | 132 | 110 |  |  |  | 443 | 782 |  |  |  | 
7 | CO[C@@]12[C@H](COC(N)=O)C3=C(C(=O)C(C)=C(N)C3=O)N1C[C@@H]1N[C@@H]12 [Mitomycin C] | 2680 | 2380 | 1370 | 3.56 | 2970 | 91.9 | 103 | 1490 | 1080 | 360 | 2270 | 7160 | 3790 |  |  | 2940 | 5790 | 3920 | 5070 | 3420 |  |  |  | 
8 | CN(Cc1cnc2nc(N)nc(N)c2n1)c1ccc(C(=O)N[C@@H](CCC(=O)O)C(=O)O)cc1 [Methotrexate] |  | 15.2 |  | 0.0515 |  | 49 | 95.7 | 23.5 |  |  | 25.1 | 15.9 |  |  |  | 46.5 | 84.8 | 71.7 |  |  |  |  |  | 
9 | CC1(C)CCC(c2ccc(Cl)cc2)=C(CN2CCN(c3ccc(C(=O)NS(=O)(=O)c4ccc(N[C@H](CCN5CCOCC5)CSc5ccccc5)c(S(=O)(=O)C(F)(F)F)c4)cc3)CC2)C1 [Navitoclax] |  |  | 166 |  | 373 | 58.8 | 87.4 |  | 614 |  | 109 | 235 | 101 |  |  | 129 |  |  | 286 |  |  |  |  | 
10 | C=CCN(/C=C1/C(=O)O[C@H](COC)[C@@]2(C)C1=C(O)C(=O)C1=C2[C@H](OC(C)=O)C[C@]2(C)C(=O)CC[C@@H]12)CC=C [PX-866] |  | 1130 |  | 6.75 |  | 78.1 | 109 | 1320 | 951 | 725 | 1390 | 1020 |  |  |  |  |  |  |  |  |  |  |  | 
11 | CCN(CC)CCCC(C)Nc1ccnc2cc(Cl)ccc12 (configuration not stated) [Chloroquine] |  |  |  |  |  |  |  |  |  |  |  |  |  |  |  |  |  |  |  |  |  |  | 92 | 106
12 | CCNC(=O)c1noc(-c2cc(C(C)C)c(O)cc2O)c1-c1ccc(CN2CCOCC2)cc1 [NVP-AUY922] | 10.2 | 32.2 | 45.2 | 0.00374 | 5.61 |  |  | 6.13 | 6.7 | 0.76 | 7.89 | 7.81 | 5.15 | 34.9 | 132 | 19.4 | 22.2 | 18.8 | 15.9 | 15.3 |  |  |  | 
13 | CNC(=O)c1ccccc1Sc1ccc2c(/C=C/c3ccccn3)n[nH]c2c1 [Axitinib] | 91.7 | 2570 |  |  | 2180 | 58.8 | 100 |  | 1170 | 1370 | 6660 |  | 163 |  |  | 1880 | 1620 | 1250 | 2250 | 657 |  |  |  | 
